Assays:
Assay in all cases: Kinase selectivity screen
Format in all cases: biochemical
FGF-R1 = FGF-R1 (Homo sapiens, UniProt P11362); settings: FGF-R1, 10 μM
In short: (§1)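 ICL-CCIC-0019 was screened against a panel of 131 human kinases to assess kinase specificity. Activity was expressed as percent inhibition of each kinase.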

MLK1 = MLK1 (Homo sapiens, UniProt P80192); settings: MLK1, 10 μM
TAK1-TAB1 = TAK1-TAB1 (Homo sapiens, UniProt O43318); settings: TAK1-TAB1, 10 μM
In short: as §1

ERK1 = ERK1 (Homo sapiens, UniProt P27361); settings: ERK1, 10 μM
In short: as §1

EF2K = EF2K (Homo sapiens, UniProt O00418)
In short: as §1

CSK = CSK (Homo sapiens, UniProt P41240)
In short: as §1

PKBb = PKBb (Homo sapiens, UniProt P31751)
In short: as §1

LKB1 = LKB1 (Homo sapiens, UniProt Q15831); settings: LKB1, 10 μM
MEKK1 = MEKK1 (Homo sapiens, UniProt Q13233); settings: MEKK1, 10 μM
MEKK1, sequence (Q13233 whole entry): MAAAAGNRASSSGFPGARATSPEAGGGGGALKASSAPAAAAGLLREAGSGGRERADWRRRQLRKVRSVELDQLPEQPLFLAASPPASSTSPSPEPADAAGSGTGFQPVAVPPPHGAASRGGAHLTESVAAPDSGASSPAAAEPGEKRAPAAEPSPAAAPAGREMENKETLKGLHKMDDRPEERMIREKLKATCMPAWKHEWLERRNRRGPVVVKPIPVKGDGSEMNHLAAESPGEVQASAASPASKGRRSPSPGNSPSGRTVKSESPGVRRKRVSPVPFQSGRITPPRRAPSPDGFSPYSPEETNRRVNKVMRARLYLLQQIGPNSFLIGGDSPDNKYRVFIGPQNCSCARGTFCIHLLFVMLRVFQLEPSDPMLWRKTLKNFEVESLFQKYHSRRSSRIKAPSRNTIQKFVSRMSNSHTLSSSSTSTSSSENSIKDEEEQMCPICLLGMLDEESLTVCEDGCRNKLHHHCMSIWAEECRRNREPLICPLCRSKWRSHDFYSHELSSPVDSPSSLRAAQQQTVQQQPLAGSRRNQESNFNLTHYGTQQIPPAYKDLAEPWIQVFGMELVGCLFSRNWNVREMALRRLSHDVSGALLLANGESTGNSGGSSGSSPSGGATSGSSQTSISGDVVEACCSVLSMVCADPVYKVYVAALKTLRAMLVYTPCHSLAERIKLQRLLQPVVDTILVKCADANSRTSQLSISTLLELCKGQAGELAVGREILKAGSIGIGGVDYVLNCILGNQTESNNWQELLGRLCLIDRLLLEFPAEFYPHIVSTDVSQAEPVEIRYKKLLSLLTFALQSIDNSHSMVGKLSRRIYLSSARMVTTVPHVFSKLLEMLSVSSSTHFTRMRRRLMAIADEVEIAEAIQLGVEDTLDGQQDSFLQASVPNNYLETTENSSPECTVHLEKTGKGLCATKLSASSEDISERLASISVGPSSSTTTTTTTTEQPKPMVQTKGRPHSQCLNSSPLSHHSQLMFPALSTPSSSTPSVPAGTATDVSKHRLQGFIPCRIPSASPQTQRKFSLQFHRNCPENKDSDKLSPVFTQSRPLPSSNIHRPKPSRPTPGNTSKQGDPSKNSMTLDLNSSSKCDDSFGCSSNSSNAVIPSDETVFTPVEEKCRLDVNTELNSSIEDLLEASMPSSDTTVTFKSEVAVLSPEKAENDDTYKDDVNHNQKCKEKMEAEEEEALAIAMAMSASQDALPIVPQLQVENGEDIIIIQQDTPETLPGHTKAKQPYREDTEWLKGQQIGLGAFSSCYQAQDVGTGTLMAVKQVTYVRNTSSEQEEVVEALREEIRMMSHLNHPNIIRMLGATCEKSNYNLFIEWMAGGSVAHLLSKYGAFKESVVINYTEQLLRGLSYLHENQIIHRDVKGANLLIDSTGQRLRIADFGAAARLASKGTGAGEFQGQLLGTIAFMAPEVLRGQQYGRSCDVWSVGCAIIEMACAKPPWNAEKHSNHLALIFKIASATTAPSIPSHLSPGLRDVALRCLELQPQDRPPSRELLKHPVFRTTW

ROCK 2 = ROCK 2 (Homo sapiens, UniProt O75116); settings: ROCK 2, 10 μM
In short: as §1

STK33 = STK33 (Homo sapiens, UniProt Q9BYT3); settings: STK33, 10 μM
STK33, sequence (Q9BYT3 whole entry): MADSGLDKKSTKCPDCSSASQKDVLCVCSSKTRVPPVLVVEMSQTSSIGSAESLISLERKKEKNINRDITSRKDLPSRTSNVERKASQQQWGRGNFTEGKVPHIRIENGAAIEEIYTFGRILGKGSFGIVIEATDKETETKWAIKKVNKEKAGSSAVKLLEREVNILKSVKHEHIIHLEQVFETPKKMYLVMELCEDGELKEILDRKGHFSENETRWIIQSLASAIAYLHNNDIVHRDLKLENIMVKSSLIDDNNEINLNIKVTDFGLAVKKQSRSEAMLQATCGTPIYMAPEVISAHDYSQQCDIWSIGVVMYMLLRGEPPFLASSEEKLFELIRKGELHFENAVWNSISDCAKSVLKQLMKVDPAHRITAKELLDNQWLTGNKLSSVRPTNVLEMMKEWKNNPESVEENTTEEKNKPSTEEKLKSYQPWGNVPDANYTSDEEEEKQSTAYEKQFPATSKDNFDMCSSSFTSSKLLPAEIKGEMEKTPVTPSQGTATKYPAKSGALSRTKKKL
In short: as §1

TTK = TTK (Homo sapiens, UniProt P33981)
In short: as §1

PKA = PKA (Homo sapiens, UniProt P17612)
In short: as §1

BTK = BTK (Homo sapiens, UniProt Q06187)
PAK6 = PAK6 (Homo sapiens, UniProt Q9NQU5); settings: PAK6, 10 μM
In short: as §1

PHK = PHK (Homo sapiens, UniProt Q16816)
In short: as §1

TBK1 = TBK1 (Homo sapiens, UniProt Q9UHD2); settings: TBK1, 10 μM
In short: as §1

TTBK1 = TTBK1 (Homo sapiens, UniProt Q5TCY1); settings: TTBK1, 10 μM
In short: as §1

IKKb = IKKb (Homo sapiens, UniProt O14920)
In short: as §1

HER4 = HER4 (Homo sapiens, UniProt Q15303); settings: HER4, 10 μM
HER4, sequence (Q15303 26-1308): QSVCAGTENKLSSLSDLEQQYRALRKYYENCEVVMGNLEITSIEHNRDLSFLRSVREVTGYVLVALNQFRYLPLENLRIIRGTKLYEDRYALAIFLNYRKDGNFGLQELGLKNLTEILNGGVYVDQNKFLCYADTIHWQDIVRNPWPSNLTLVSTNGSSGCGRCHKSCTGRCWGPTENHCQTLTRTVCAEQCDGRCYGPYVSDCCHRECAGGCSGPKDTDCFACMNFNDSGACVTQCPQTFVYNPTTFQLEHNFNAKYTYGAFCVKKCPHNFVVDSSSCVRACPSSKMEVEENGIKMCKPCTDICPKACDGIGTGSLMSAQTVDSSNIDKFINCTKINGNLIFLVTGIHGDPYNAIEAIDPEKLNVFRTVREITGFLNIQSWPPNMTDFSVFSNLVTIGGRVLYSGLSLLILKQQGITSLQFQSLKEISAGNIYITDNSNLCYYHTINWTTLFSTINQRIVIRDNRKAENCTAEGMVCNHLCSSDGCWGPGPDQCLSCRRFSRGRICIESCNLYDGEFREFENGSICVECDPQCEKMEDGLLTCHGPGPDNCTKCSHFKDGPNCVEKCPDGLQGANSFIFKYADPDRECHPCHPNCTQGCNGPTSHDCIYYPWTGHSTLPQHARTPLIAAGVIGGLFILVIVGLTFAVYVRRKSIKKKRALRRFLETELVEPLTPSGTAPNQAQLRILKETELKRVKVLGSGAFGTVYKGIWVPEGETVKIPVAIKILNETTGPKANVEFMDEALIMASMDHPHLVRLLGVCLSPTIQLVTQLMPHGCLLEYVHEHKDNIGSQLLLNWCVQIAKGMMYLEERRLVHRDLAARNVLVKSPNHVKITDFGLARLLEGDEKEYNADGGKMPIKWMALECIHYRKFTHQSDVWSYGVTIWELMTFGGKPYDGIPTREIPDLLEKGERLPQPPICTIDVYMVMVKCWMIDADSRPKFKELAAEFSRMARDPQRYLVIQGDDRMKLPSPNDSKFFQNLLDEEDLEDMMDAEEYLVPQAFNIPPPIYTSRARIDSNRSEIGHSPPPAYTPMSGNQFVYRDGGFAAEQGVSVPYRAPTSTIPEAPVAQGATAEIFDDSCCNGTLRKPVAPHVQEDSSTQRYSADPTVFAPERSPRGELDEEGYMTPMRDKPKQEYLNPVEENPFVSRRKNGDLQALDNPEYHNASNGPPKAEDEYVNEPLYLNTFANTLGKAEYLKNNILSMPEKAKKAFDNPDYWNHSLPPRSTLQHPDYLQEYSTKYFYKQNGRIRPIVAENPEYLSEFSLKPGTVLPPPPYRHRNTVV
In short: as §1

MSK1 = MSK1 (Homo sapiens, UniProt O75582); settings: MSK1, 10 μM
In short: as §1

TESK1 = TESK1 (Homo sapiens, UniProt Q15569); settings: TESK1, 10 μM
In short: as §1

p38a MAPK = p38a MAPK (Homo sapiens, UniProt Q16539)
In short: as §1

TrkA = TrkA (Homo sapiens, UniProt P04629)
In short: as §1

PKBa = PKBa (Homo sapiens, UniProt P31749)
In short: as §1

EPH-B2 = EPH-B2 (Homo sapiens, UniProt P29323); settings: EPH-B2, 10 μM
In short: as §1

p38g MAPK = p38g MAPK (Homo sapiens, UniProt P53778)
In short: as §1

MAPKAP-K2 = MAPKAP-K2 (Homo sapiens, UniProt P49137); settings: MAPKAP-K2, 10 μM
MINK1 = MINK1 (Homo sapiens, UniProt Q8N4C8); settings: MINK1, 10 μM
ZAP70 = ZAP70 (Homo sapiens, UniProt P43403); settings: ZAP70, 10 μM
ZAP70, sequence (P43403 whole entry): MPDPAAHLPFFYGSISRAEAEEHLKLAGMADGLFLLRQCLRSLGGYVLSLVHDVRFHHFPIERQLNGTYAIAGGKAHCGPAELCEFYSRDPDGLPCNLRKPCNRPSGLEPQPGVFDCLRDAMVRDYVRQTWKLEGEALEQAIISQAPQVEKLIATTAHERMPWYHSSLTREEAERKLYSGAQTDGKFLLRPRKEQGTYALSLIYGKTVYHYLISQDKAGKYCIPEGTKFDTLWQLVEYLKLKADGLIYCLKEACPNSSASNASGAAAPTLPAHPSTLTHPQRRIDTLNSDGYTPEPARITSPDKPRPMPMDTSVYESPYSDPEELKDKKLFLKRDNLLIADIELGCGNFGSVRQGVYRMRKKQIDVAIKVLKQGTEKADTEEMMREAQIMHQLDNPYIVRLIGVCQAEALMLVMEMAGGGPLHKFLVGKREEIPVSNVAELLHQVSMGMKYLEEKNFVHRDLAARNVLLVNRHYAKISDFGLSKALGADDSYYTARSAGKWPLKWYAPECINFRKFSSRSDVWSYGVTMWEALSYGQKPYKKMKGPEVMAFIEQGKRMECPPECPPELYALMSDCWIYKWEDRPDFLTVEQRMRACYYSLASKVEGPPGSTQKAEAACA
In short: as §1

TSSK1 = TSSK1 (Homo sapiens, UniProt Q9BXA7); settings: TSSK1, 10 μM
In short: as §1

MNK2 = MNK2 (Homo sapiens, UniProt Q9HBH9); settings: MNK2, 10 μM
PIM1 = PIM1 (Homo sapiens, UniProt P11309); settings: PIM1, 10 μM
In short: as §1

CHK1 = CHK1 (Homo sapiens, UniProt O14757); settings: CHK1, 10 μM
IRAK1 = IRAK1 (Homo sapiens, UniProt P51617); settings: IRAK1, 10 μM
MELK = MELK (Homo sapiens, UniProt Q14680)

MLK1, sequence (P80192 whole entry): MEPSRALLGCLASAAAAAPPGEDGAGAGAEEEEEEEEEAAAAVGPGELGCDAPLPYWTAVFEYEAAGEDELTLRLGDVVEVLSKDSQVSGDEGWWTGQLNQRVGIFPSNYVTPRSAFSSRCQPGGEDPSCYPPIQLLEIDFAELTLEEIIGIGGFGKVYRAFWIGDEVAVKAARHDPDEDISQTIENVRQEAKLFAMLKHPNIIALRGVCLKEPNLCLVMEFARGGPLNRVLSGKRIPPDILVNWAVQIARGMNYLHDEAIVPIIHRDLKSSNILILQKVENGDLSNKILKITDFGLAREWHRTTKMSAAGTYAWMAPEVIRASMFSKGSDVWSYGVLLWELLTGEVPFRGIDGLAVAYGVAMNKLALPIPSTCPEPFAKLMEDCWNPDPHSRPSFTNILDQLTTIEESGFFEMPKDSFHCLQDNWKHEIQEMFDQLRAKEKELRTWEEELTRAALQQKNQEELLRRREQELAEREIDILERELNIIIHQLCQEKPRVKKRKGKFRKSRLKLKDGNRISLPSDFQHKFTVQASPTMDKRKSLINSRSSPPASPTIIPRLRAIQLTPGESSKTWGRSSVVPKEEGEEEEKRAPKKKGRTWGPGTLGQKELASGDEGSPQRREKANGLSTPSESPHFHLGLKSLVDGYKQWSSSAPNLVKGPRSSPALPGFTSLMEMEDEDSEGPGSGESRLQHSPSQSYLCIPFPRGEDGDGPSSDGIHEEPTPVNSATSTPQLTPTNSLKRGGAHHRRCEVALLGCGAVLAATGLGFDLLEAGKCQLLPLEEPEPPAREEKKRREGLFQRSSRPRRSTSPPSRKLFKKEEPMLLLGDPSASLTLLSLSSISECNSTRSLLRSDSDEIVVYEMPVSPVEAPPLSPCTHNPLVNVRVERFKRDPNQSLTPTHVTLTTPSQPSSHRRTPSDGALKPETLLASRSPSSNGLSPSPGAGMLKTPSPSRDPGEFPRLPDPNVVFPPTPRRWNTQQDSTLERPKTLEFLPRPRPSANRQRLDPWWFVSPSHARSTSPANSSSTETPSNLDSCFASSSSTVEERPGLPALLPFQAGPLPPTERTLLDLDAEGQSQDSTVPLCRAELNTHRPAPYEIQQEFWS

## CN(C)c1cc[n+](CCCCCCCCCCCC[n+]2ccc(N(C)C)cc2)cc1 [ICL-CCIC-0019]
FGF-R1
  remaining activity at 10 µM: 92%
MLK1
  remaining activity at 10 µM: 91%
TAK1-TAB1
  remaining activity at 10 µM: 97%
ERK1
  remaining activity at 10 µM: 91%
EF2K
  remaining activity at 10 µM: 99%
CSK
  remaining activity at 10 µM: 96%
PKBb
  remaining activity at 10 µM: 93%
LKB1
  remaining activity at 10 µM: 100%
MEKK1
  remaining activity at 10 µM: 92%
ROCK 2
  remaining activity at 10 µM: 97%
STK33
  remaining activity at 10 µM: 99%
TTK
  remaining activity at 10 µM: 101%
PKA
  remaining activity at 10 µM: 106%
BTK
  remaining activity at 10 µM: 131%
PAK6
  remaining activity at 10 µM: 107%
PHK
  remaining activity at 10 µM: 94%
TBK1
  remaining activity at 10 µM: 108%
TTBK1
  remaining activity at 10 µM: 97%
IKKb
  remaining activity at 10 µM: 101%
HER4
  inhibition at 10 µM: 21 ± 7%
  remaining activity at 10 µM: 79%
MSK1
  remaining activity at 10 µM: 96%
TESK1
  remaining activity at 10 µM: 101%
p38a MAPK
  remaining activity at 10 µM: 108%
TrkA
  remaining activity at 10 µM: 84%
PKBa
  remaining activity at 10 µM: 101%
EPH-B2
  remaining activity at 10 µM: 90%
p38g MAPK
  remaining activity at 10 µM: 99%
MAPKAP-K2
  remaining activity at 10 µM: 89%
MINK1
  remaining activity at 10 µM: 100%
ZAP70
  remaining activity at 10 µM: 102%
TSSK1
  remaining activity at 10 µM: 107%
MNK2
  remaining activity at 10 µM: 96%
PIM1
  remaining activity at 10 µM: 102%
CHK1
  remaining activity at 10 µM: 97%
IRAK1
  remaining activity at 10 µM: 89%
MELK
  remaining activity at 10 µM: 106%
